Test results taken from patent US9695155B2, “Herbicidal substituted pyrimidinyloxy benzene compounds” (E. I. DU PONT DE NEMOURS AND COMPANY, priority 2013, dated 2017).

Columns and labels:
velvetleaf = experiment: Test A postemergence; assay type: in vivo, Abutilon theophrasti; details: 0 to 100 scale where 0 is no effect and 100 is complete control
Method in brief: (§1)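 Greenhouse pot test, loam/sand soil. Formulation: non-phytotoxic solvent mix plus surfactant. Pre: directed spray onto soil after sowing. Post: plants at 1–2 leaf, 2–10 cm. Rated visually vs untreated controls at ~10 d, 0 (no effect) to 100 (complete control).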

Italian ryegrass = experiment: Test C preemergence; assay type: in vivo, Lolium multiflorum; details: preemergence
Description: (§2) Seeds of plant species selected from blackgrass (Alopecurus myosuroides), Italian ryegrass (Lolium multiflorum), wheat, winter (winter wheat, Triticum aestivum), galium (catchweed bedstraw, Galium aparine), corn (Zea mays), large (Lg) crabgrass (Digitaria sanguinalis), giant foxtail (Setaria faberii), johnsongrass (Sorghum halepense), lambsquarters (Chenopodium album), morningglory (Ipomoea coccinea), yellow nutsedge (Cyperus esculentus), pigweed (Amaranthus retroflexus), ragweed (common ragweed, Ambrosia elatior), soybean (Glycine max), barnyardgrass (Echinochloa crus-galli), oilseed rape (Brassica napus), waterhemp (common waterhemp, Amaranthus rudis), kochia (Kochia scoparia), wild oat (Avena fatua), surinam grass (Brachiaria decumbens), foxtail, green (green foxtail, Setaria viridis), goosegrass (Eleusine indica), bromegrass, downy (downy bromegrass, Bromus tectorum), nightshade (eastern black nightshade, Solanum ptycanthum), cocklebur (common cocklebur, Xanthium strumarium), cupgrass, woolly (woolly cupgrass, Eriochloa villosa), bermudagrass (Cynodon dactylon), sunflower, (common oilseed sunflower, Helianthus annuus), Russian thistle (Salsola kali), and velvetleaf (Abutilon theophrasti) were planted into a blend of loam soil and sand and treated preemergence with test chemicals formulated in a non-phytotoxic solvent mixture which included a surfactant.
(§3) At the same time, plants selected from these crop and weed species and also barley, winter (winter barley, Hordeum vulgare), windgrass (Apera spica-venti), chickweed (common chickweed, Stellaria media), deadnettle (henbit deadnettle, Lamium amplexicaule), and canarygrass (littleseed canarygrass, Phalaris minor) were planted in pots containing Redi-Earth® planting medium (Scotts Company, 14111 Scottslawn Road, Marysville, Ohio 43041) comprising spaghnum peat moss, vermiculite, wetting agent and starter nutrients and treated with postemergence applications of test chemicals formulated in the same manner. Plants ranged in height from 2 to 18 cm (1- to 4-leaf stage) for postemergence treatments. Treated plants and controls were maintained in a greenhouse for 13 to 15 days, after which time all species were compared to controls and visually evaluated. Plant response ratings, summarized in Table C, are based on a scale of 0 to 100 where 0 is no effect and 100 is complete control. A dash (-) response means no test result.

large (Lg) crabgrass = experiment: Test C preemergence; assay type: in vivo, Digitaria sanguinalis; details: for Crabgrass, Large plant response rating: preemergence
Description: as §2, §3

pigweed = experiment: Test A preemergence; assay type: in vivo, Amaranthus retroflexus; details: for Pigweed plant response rating (0 to 100 scale): 125 g ai/ha
Method in brief: as §1

wheat = experiment: Test A postemergence; assay type: in vivo, Triticum aestivum
Method in brief: as §1

morningglory = experiment: Test A preemergence; assay type: in vivo, Ipomoea spp.
Method in brief: as §1

giant foxtail = experiment: Test A preemergence; assay type: in vivo, Setaria faberii
Method in brief: as §1

barnyardgrass = experiment: Test B flooded paddy test; assay type: in vivo, Echinochloa crus-galli; details: Flood, 250 g ai/ha; 0 to 100 scale where 0 is no effect and 100 is complete control
Method in brief: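 Plants were grown to the 2-leaf stage, then pots were flooded to 3 cm above the soil and compounds were applied directly into the paddy water. That depth was held throughout, and after 13 to 15 days in the greenhouse injury was rated visually against controls on a 0–100 scale (0 no effect, 100 complete control).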

wild oat = experiment: Test C postemergence; assay type: in vivo, Avena fatua
Method in brief: (§4)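 Preemergence: seeds sown in a loam soil–sand blend and sprayed with test chemical in a non-phytotoxic solvent mixture containing surfactant. Postemergence: plants at 2 to 18 cm (1- to 4-leaf stage) in peat-based medium, treated with the same formulation. Greenhouse 13 to 15 days, then visual rating 0 (no effect) to 100 (complete control).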

blackgrass = experiment: Test A postemergence; assay type: in vivo, Alopecurus myosuroides; details: 0 to 100 scale, 0 no effect, 100 complete control
Method in brief: as §1

ragweed [1] = experiment: Test A preemergence; assay type: in vivo, Ambrosia elatior
Method in brief: as §1

wheat, winter = experiment: Test C postemergence; assay type: in vivo, Triticum aestivum
Method in brief: as §4

chickweed = experiment: Test C postemergence; assay type: in vivo, Stellaria media
Method in brief: as §4

ragweed [2] = experiment: Test A postemergence; assay type: in vivo, Ambrosia elatior; details: 0 to 100 scale, 0 no effect, 100 complete control
Method in brief: as §1

kochia = experiment: Test C postemergence; assay type: in vivo, Kochia scoparia
Method in brief: as §4

[3] = 16 g ai/ha, scale 0 to 100 (0 no effect, 100 complete control)
[4] = 62 g ai/ha, scale 0 (no effect) to 100 (complete control)
[5] = 125 g ai/ha, scale 0 (no effect) to 100 (complete control)
[6] = 500 g ai/ha, 0 to 100 scale where 0 is no effect and 100 is complete control
[7] = 125 g ai/ha, 0 to 100 scale where 0 is no effect and 100 is complete control
[8] = 16 g ai/ha, postemergence, 0 is no effect, 100 is complete control
[9] = 31 g ai/ha, postemergence, visual rating, scale 0 to 100 (0 no effect, 100 complete control), 13 to 15 days
[10] = 125 g ai/ha, postemergence, visual rating, scale 0 to 100 (0 no effect, 100 complete control)
[11] = Postemergence, 62 g ai/ha, scale 0 to 100 (0 no effect, 100 complete control), 13 to 15 days
[12] = 31 g ai/ha, 0 to 100 scale where 0 is no effect and 100 is complete control, visual, approximately 10 days

In the case of `FC(F)c1cccc(Oc2ncc(Cl)cn2)c1-n1cc(C(F)(F)F)cn1` [Compound 170], the “Velvetleaf plant response rating” value (velvetleaf; 125 g ai/ha) is reported as 70, the “Plant response rating, Velvetleaf” value (velvetleaf; 500 g ai/ha) is reported as 100 and the “Ryegrass, Italian plant response rating” value (Italian ryegrass; [3]) is reported as 5. The “Ryegrass, Italian plant response rating” value (Italian ryegrass; [4]) was 75, the “Ryegrass, Italian plant response rating” value (Italian ryegrass; [5]) was 90 and the “Crabgrass, Large plant response rating” value (large (Lg) crabgrass; [3]) was 25. The “Crabgrass, Large plant response rating” value (large (Lg) crabgrass; [4]) was 100, the “Crabgrass, Large plant response rating” value (large (Lg) crabgrass; [5]) was 100 and the “Plant response rating, Crabgrass, Large” value (large (Lg) crabgrass; Preemergence, 31 g ai/ha, scale 0 to 100, 0 no effect, 100 complete control) was 95. For the same compound, the “Pigweed plant response rating (0 to 100 scale)” value (pigweed) was 100, the “Pigweed plant response rating” value (pigweed; [6]) was 100 and the “Wheat plant response rating” value (wheat; [7]) was 30. The “Plant response rating, Wheat” value (wheat; [6]) was 70, the “Morningglory plant response rating (0 to 100 scale)” value (morningglory; 125 g ai/ha) was 20 and the “Morningglory plant response rating” value (morningglory; [6]) was 90. The “Plant response rating, Foxtail, Giant” value (giant foxtail; [7]) was 100, the “Foxtail, Giant plant response rating” value (giant foxtail; [6]) was 90 and the “Plant response rating, Barnyardgrass” value (barnyardgrass) was 70.

`FCc1cccc(Oc2ncc(Cl)cn2)c1-n1cc(I)cn1` [Compound 245] was tested, and the “Plant response rating (0 to 100), Oat, Wild” value (wild oat; [8]) was 0, the “Oat, Wild plant response rating” value (wild oat; [9]) was 0 and the “Plant response rating, Oat, Wild” value (wild oat; [10]) was 5. For the same compound, the “Plant response rating, Oat, Wild” value (wild oat; [11]) was 5, the “Plant response rating, Blackgrass” value (blackgrass; 31 g ai/ha) was 30 and the “Plant response rating, Blackgrass” value (blackgrass; 125 g ai/ha) was 70. For the same compound, the “Plant response rating, Ragweed” value (ragweed [1]; [12]) was 0, the “Ragweed plant response rating (0 to 100 scale)” value (ragweed [1]; 125 g ai/ha) was 0 and the “Plant response rating (0 to 100), Wheat” value (wheat, winter; [8]) was 0. For the same compound, the “Wheat plant response rating” value (wheat, winter; [9]) was 0, the “Plant response rating, Wheat” value (wheat, winter; [10]) was 5 and the “Plant response rating, Wheat” value (wheat, winter; [11]) was 0. The “Plant response rating, Pigweed” value (pigweed; [12]) was 90, the “Pigweed plant response rating (0 to 100 scale)” value (pigweed) was 90 and the “Plant response rating (0 to 100), Chickweed” value (chickweed; [8]) was 5. The “Chickweed plant response rating” value (chickweed; [9]) was 60, the “Plant response rating, Chickweed” value (chickweed; [10]) was 100 and the “Plant response rating, Chickweed” value (chickweed; [11]) was 80. For the same compound, the “Plant response rating, Wheat” value (wheat; 31 g ai/ha, 0 to 100 scale, 0 no effect, 100 complete control) was 20, the “Plant response rating, Wheat” value (wheat; 125 g ai/ha, 0 to 100 scale, 0 no effect, 100 complete control) was 40 and the “Plant response rating, Ragweed” value (ragweed [2]; 31 g ai/ha) was 0. For the same compound, the “Plant response rating, Ragweed” value (ragweed [2]; 125 g ai/ha) was 20, the “Plant response rating, Foxtail, Giant” value (giant foxtail; [12]) was 60 and the “Foxtail, Giant plant response rating (0 to 100 scale)” value (giant foxtail; 125 g ai/ha) was 100. For the same compound, the “Plant response rating (0 to 100), Kochia” value (kochia; [8]) was 45, the “Kochia plant response rating” value (kochia; [9]) was 75 and the “Plant response rating, Kochia” value (kochia; [10]) was 98. The “Plant response rating, Kochia” value (kochia; [11]) was 90 and the “Plant response rating, Barnyardgrass” value (barnyardgrass) was 0.
